In PubChem BioAssay AID248 (DTP/NCI, 2004):
Several values for one entry are separate records, joined by “and”; a condition that tells them apart may be missing. Equal entries are not always repeated. Toxic doses and inconclusive results are not listed. Cut-off read from the data, not from the text of the source: active = T/C of 150% or more; inactive = T/C below 125%.

Test system: L1210 leukemia ip in BDF1 mice, survival T/C
Test: NCI In Vivo Anticancer Drug Screen. Data for tumor model L1210 Leukemia (intraperitoneal) in B6D2F1 (BDF1) mice
Details: endpoint: mean survival time, higher = longer survival
Outline: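 Antitumor effect is assessed in tumor-bearing animals. Survival in the compound arm is compared with a vehicle-dosed control arm and expressed as their quotient.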

[1] = dose: 100.0 mg/kg/injection, schedule: Q01DX009 (ip), vehicle: Klucel (hydroxypropylcellulose) (HPC)
[2] = dose: 200.0 mg/kg/injection, schedule: Q01DX009 (ip), vehicle: Klucel (hydroxypropylcellulose) (HPC)
[3] = dose: 400.0 mg/kg/injection, schedule: Q01DX009 (ip), vehicle: Klucel (hydroxypropylcellulose) (HPC)
[4] = dose: 100.0 mg/kg/injection, schedule: Q01DX001 (ip), vehicle: carboxymethylcellulose (CMC)
[5] = dose: 200.0 mg/kg/injection, schedule: Q01DX001 (ip), vehicle: carboxymethylcellulose (CMC)
[6] = dose: 400.0 mg/kg/injection, schedule: Q01DX001 (ip), vehicle: carboxymethylcellulose (CMC)
[7] = dose: 100.0 mg/kg/injection, schedule: Q04DX003 (ip), vehicle: Klucel (hydroxypropylcellulose) (HPC)
[8] = dose: 200.0 mg/kg/injection, schedule: Q04DX003 (ip), vehicle: Klucel (hydroxypropylcellulose) (HPC)
[9] = dose: 400.0 mg/kg/injection, schedule: Q04DX003 (ip), vehicle: Klucel (hydroxypropylcellulose) (HPC)

Measured: T/C

Nc1ccc(C(=O)NO)cc1
inactive: dose: 62.0 mg/kg/injection, schedule: Q03HX024 (ip), vehicle: saline with Tween-80 101 % of control | [1] 98 % of control | dose: 125.0 mg/kg/injection, schedule: Q03HX024 (ip), vehicle: saline with Tween-80 97 % of control | [2] 98 % of control | dose: 200.0 mg/kg/injection, schedule: Q01DX Z (ip), vehicle: carboxymethylcellulose (CMC) 118 % of control | dose: 200.0 mg/kg/injection, schedule: Q01DX Z (ip), vehicle: saline 117 % of control and 123 % of control | dose: 300.0 mg/kg/injection, schedule: Q01DX Z (ip), vehicle: carboxymethylcellulose (CMC) 115 % of control | [3] 108 % of control | dose: 443.0 mg/kg/injection, schedule: Q01DX Z (ip), vehicle: saline 119 % of control | dose: 675.0 mg/kg/injection, schedule: Q01DX Z (ip), vehicle: saline 91 % of control | dose: 800.0 mg/kg/injection, schedule: Q01DX009 (ip), vehicle: Klucel (hydroxypropylcellulose) (HPC) 106 % of control

COC(=O)c1cc(-c2ccc(Cl)cc2)nc2c(C)cc(C)cc12
inactive: [4] 92 % of control | [5] 101 % of control | [6] 89 % of control

ClCCOCc1ccccc1
inactive: [7] 102 % of control | [8] 100 % of control | [9] 98 % of control

Cn1c(=O)c(CC(C(=O)O)C(=O)O)nc2ccccc21
inactive: dose: 50.0 mg/kg/injection, schedule: Q01DX009 (ip), vehicle: Klucel (hydroxypropylcellulose) (HPC) 93 % of control | [1] 93 % of control | [2] 100 % of control

CSc1ccc(C(=O)c2ccc(SC)cc2)cc1
inactive: [1] 98 % of control | [2] 98 % of control | [3] 95 % of control

N/N=C(\NN)c1ccccc1
inactive: dose: 100.0 mg/kg/injection, schedule: Q01DX009 (ip), vehicle: saline with Tween-80 92 % of control | dose: 200.0 mg/kg/injection, schedule: Q01DX009 (ip), vehicle: saline with Tween-80 91 % of control | dose: 400.0 mg/kg/injection, schedule: Q01DX009 (ip), vehicle: saline with Tween-80 86 % of control

O=c1c2ccccc2[nH]c(=S)n1-c1cccc(Cl)c1
inactive: dose: 75.0 mg/kg/injection, schedule: Q01DX001 (ip), vehicle: saline 93 % of control | dose: 150.0 mg/kg/injection, schedule: Q01DX001 (ip), vehicle: saline 89 % of control | dose: 300.0 mg/kg/injection, schedule: Q01DX001 (ip), vehicle: saline 91 % of control

CN(C)C1C(CO)C(CO)C1(C)C (stereo not given)
inactive: dose: 100.0 mg/kg/injection, schedule: Q01DX001 (ip), vehicle: saline with Tween-80 102 % of control | dose: 200.0 mg/kg/injection, schedule: Q01DX001 (ip), vehicle: saline with Tween-80 97 % of control

CCC1CN2C(=N1)c1ccccc1-c1cc([N+](=O)[O-])ccc12 (stereo not given)
inactive: [1] 101 % of control | [7] 99 % of control | [2] 104 % of control | [8] 106 % of control | [3] 95 % of control | [9] 97 % of control

CC(=O)Nc1ccc(Cl)nc1
inactive: [1] 98 % of control | [7] 94 % of control | [2] 92 % of control | [8] 101 % of control | [3] 93 % of control | [9] 91 % of control

CCCCNS(=O)(=O)c1ccc(C(N)=S)cc1
inactive: dose: 100.0 mg/kg/injection, schedule: Q01DX001 (ip), vehicle: Klucel (hydroxypropylcellulose) (HPC) 111 % of control | dose: 200.0 mg/kg/injection, schedule: Q01DX001 (ip), vehicle: Klucel (hydroxypropylcellulose) (HPC) 106 % of control | dose: 400.0 mg/kg/injection, schedule: Q01DX001 (ip), vehicle: Klucel (hydroxypropylcellulose) (HPC) 103 % of control

CCC(CCC(C)C1CCC2C3CC=C4CC(O)CCC4(C)C3CCC12C)C(C)C (stereo not given) (tested in a mixture with another compound)
inactive: dose: 12.5 mg/kg/injection, schedule: Q#A X030 (ip), vehicle: water 103 % of control | dose: 25.0 mg/kg/injection, schedule: Q01DX009 (ip), vehicle: saline with Tween-80 93 % of control | dose: 25.0 mg/kg/injection, schedule: Q#A X030 (ip), vehicle: water 101 % of control | dose: 50.0 mg/kg/injection, schedule: Q01DX009 (ip), vehicle: saline with Tween-80 89 % of control | dose: 50.0 mg/kg/injection, schedule: Q#A X030 (ip), vehicle: water 92 % of control | dose: 100.0 mg/kg/injection, schedule: Q04DX003 (ip), vehicle: saline with Tween-80 100 % of control | dose: 200.0 mg/kg/injection, schedule: Q01DX001 (ip), vehicle: water 101 % of control | dose: 400.0 mg/kg/injection, schedule: Q01DX001 (ip), vehicle: water 95 % of control

SC1c2cc(Cl)ccc2-c2ccc(Cl)cc21
inactive: [4] 92 % of control | [5] 92 % of control | [6] 92 % of control

Cc1ccc(C(=O)CC(Sc2ccccc2N)c2cccc([N+](=O)[O-])c2)cc1 (stereo not given)
inactive: dose: 100.0 mg/kg/injection, schedule: Q01DX005 (ip), vehicle: Klucel (hydroxypropylcellulose) (HPC) 93 % of control | [1] 97 % of control | dose: 100.0 mg/kg/injection, schedule: Q04DX002 (ip), vehicle: Klucel (hydroxypropylcellulose) (HPC) 98 % of control | dose: 200.0 mg/kg/injection, schedule: Q01DX005 (ip), vehicle: Klucel (hydroxypropylcellulose) (HPC) 96 % of control | [2] 94 % of control | dose: 400.0 mg/kg/injection, schedule: Q01DX005 (ip), vehicle: Klucel (hydroxypropylcellulose) (HPC) 115 % of control | [3] 97 % of control | dose: 400.0 mg/kg/injection, schedule: Q04DX002 (ip), vehicle: Klucel (hydroxypropylcellulose) (HPC) 95 % of control
